Laboratory results reported in publication PMC9596378, “Discovery and molecular basis of subtype-selective cyclophilin inhibitors” (Nature Chemical Biology, 2022).
pIC50: −log10 of the molar value. Where “and” joins values, the source holds several entries; their conditions need not be identical. Equal entries are not always repeated. Where two headings read alike, the source gives them in different places.

Assays:
Assay in all cases: Chymotrypsin coupled prolyl-isomerase assay
[1] = biological target: CypD (Homo sapiens, UniProt P30405); conditions: for CypD prolyl-isomerase assay raw dose-response value: Fig. 3b source data, replicates
[2] = biological target: T1, CypA E81S/K82R (Homo sapiens, UniProt P62937, E81S/K82R); type: biochemical; conditions: mutant CypA E81S/K82R; read-out: Mutant Cyclophilin Prolyl Isomerase Inhibition IC50 Values, CypA E81S/K82R
T1 construct: Lane 12- SNA-CypA E81S/K82R (1-165);; His6 tag with TEV site (2BT vector); SNA remnant stays on the N-terminus (N, cleaved yes); made in house; host or cells: E. coli BL21(DE3)
In short: (§1)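 Chymotrypsin-coupled cis–trans isomerization of Suc-AAPF-AMC (5 µM) catalysed by 5 nM cyclophilin, run cold (2–3 °C) at pH 7.3 with 5 min compound preincubation.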

[3] = biological target: T2, CypD K118A (Homo sapiens, UniProt P30405, K118A); type: biochemical; conditions: prolyl-isomerase inhibition
T2 construct: made in house; host or cells: E. coli BL21(DE3)
In short: as §1

[4] = biological target: T3, CypD K118E (Homo sapiens, UniProt P30405, K118E); type: biochemical; conditions: for pIC50: prolyl-isomerase inhibition
T3 construct: made in house; host or cells: E. coli BL21(DE3)
In short: as §1

[5] = biological target: T4, CypD R124A (Homo sapiens, UniProt P30405, R124A); type: biochemical
T4 construct: made in house; host or cells: E. coli BL21(DE3)
In short: as §1

[6] = biological target: T5, CypD R124K (Homo sapiens, UniProt P30405, R124K); type: biochemical; conditions: mutant CypD R124K; read-out: Mutant Cyclophilin Prolyl Isomerase Inhibition IC50 Values, CypD R124K
T5 construct: made in house; host or cells: E. coli BL21(DE3)
In short: as §1

[7] = biological target: T6, CypD S123E (Homo sapiens, UniProt P30405, S123E); type: biochemical; conditions: prolyl-isomerase inhibition
T6 construct: made in house; host or cells: E. coli BL21(DE3)
In short: as §1

[8] = biological target: T7, PPIL1 (Homo sapiens, UniProt Q9Y3C6); type: biochemical; conditions: for PPIL1 prolyl-isomerase assay raw dose-response value: Fig. 3b source data, replicates; for pIC50: wild-type PPIL1, read-out: Wild-Type Cyclophilin Prolyl Isomerase Inhibition IC50 Values, PPIL1
T7 construct: PPIL1 (UniProtKB Entry Q9Y3C6: residues 1–166); made in house; host or cells: E. coli BL21(DE3)
T7 sequence (Q9Y3C6 1-166): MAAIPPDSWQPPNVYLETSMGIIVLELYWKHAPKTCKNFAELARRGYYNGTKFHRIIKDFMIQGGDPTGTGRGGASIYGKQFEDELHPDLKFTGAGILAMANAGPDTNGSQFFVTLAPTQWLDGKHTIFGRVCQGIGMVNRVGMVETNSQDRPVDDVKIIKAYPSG

[9] = biological target: T8, PPWD1 (Homo sapiens, UniProt Q96BP3); type: biochemical; conditions: for PPWD1 prolyl-isomerase assay raw dose-response value: Fig. 3b source data, replicates; for pIC50: wild-type PPWD1, read-out: Wild-Type Cyclophilin Prolyl Isomerase Inhibition IC50 Values, PPWD1
T8 construct: PPWD1 (UniProtKB Entry Q96BP3: residues 473–646); host or cells: E. coli BL21(DE3)
T8 sequence (Q96BP3 473-646): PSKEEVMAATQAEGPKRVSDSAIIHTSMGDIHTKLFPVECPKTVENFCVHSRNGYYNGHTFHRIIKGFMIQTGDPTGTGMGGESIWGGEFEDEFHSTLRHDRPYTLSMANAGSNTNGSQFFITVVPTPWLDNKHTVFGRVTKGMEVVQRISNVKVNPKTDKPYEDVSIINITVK
Method: Five microliters of compound pre-dissolved in 5% DMSO/assay buffer was then added to appropriate wells and incubated at 2–3 °C for 5 min. Five microliters of 0.5 mM α-chymotrypsin from bovine pancreas (Type II, lyophilized powder, Millipore-Sigma) in 20% 1 mM HCl/Assay Buffer was then added to each well and incubated at 2–3 °C for 5 min. The plate was then quickly transferred to a FLIPR Tetra High-Throughput Cellular Screening System (Molecular Devices). Using the internal liquid handling system of the FLIPR, 1 µL 0.5 mM Suc-AAPF-AMC (Chymotrypsin Substrate II, Millipore-Sigma) dissolved in 0.55 M LiCl/2,2,2-trifluoroethanol was added to each well, which was then mixed for 5 s, followed by immediate fluorescence measurements every 1 s for 330 s using a 360–380 nm excitation LED module and a 400–460 nm emission filter. […] Raw fluorescence data was analyzed by non-linear regression analysis with Prism v.9 by fitting one-phase association curves to each well. Analyses were halted after the calculated maximum fluorescent value owing to observed fluorescent bleaching during the sustained fluorescent plateau. Rate constants calculated for each well (s^−1) were then normalized to substrate only (no prolyl-isomerase) and enzyme + substrate only controls.

T3 sequence (P30405 45-207 K118E): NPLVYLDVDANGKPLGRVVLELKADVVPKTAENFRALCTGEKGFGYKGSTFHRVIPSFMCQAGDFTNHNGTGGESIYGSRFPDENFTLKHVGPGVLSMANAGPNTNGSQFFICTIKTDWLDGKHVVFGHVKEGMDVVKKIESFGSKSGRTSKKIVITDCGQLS
CypD, sequence (P30405 45-207): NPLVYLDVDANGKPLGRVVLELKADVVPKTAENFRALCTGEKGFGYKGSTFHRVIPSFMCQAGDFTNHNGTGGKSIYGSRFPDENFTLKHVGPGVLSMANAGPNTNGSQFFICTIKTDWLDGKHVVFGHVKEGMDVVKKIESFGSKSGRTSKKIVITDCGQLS
T4 sequence (P30405 45-207 R124A): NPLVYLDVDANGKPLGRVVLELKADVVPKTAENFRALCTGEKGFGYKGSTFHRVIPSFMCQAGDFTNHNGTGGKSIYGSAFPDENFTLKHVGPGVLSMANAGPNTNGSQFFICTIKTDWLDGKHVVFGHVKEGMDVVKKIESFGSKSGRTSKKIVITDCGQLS
T2 sequence (P30405 45-207 K118A): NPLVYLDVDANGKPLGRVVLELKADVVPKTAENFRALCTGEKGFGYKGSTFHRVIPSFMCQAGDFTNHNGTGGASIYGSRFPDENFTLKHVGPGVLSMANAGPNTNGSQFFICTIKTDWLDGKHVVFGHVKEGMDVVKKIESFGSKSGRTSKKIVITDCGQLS
T5 sequence (P30405 45-207 R124K): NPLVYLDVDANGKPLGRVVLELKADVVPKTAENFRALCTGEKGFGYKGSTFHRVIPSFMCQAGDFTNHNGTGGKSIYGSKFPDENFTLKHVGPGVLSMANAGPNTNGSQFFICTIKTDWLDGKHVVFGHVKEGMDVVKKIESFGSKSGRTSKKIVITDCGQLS
T1 sequence (P62937 whole entry E81S/K82R): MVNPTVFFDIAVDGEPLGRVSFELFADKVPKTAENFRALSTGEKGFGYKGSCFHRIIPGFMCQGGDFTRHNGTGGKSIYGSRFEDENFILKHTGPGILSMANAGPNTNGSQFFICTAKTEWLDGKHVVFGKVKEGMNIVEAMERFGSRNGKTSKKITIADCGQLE
T6 sequence (P30405 45-207 S123E): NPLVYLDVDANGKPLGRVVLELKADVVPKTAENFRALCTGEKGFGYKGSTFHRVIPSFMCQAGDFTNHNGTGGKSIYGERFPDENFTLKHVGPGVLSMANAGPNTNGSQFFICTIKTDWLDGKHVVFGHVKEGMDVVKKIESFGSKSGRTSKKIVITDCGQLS

NCCOCCNC(=O)[C@@H]1CCNC(=O)/C=C/C(=O)N2CCC[C@](Cc3ccccc3)(C2)C(=O)N[C@@H](Cc2ccc(-c3ccc(CCC(=O)O)cc3)cc2)C(=O)NCc2ccccc2CC(=O)N1 [Compound B23]
pIC50 [1]: 8.11 | CypD prolyl-isomerase assay raw dose-response value ([1]; Dose 0.000457247 µM): 0.08239 and 0.08493 and 0.09684 | CypD prolyl-isomerase assay raw dose-response value ([1]; Dose 0.00137174 µM): 0.07973 and 0.07546 and 0.07833 | CypD prolyl-isomerase assay raw dose-response value ([1]; Dose 0.00411523 µM): 0.06213 and 0.06183 and 0.0629 | CypD prolyl-isomerase assay raw dose-response value ([1]; Dose 0.0123457 µM): 0.03857 and 0.03915 and 0.03469 | CypD prolyl-isomerase assay raw dose-response value ([1]; Dose 0.037037 µM): 0.02379 and 0.02491 and 0.0225 | CypD prolyl-isomerase assay raw dose-response value ([1]; Dose 0.111111 µM): 0.01572 and 0.01536 and 0.01393 | CypD prolyl-isomerase assay raw dose-response value ([1]; Dose 0.333333 µM): 0.01408 and 0.01283 and 0.01168 | CypD prolyl-isomerase assay raw dose-response value ([1]; Dose 1 µM): 0.01156 and 0.01128 and 0.01193 | selectivity for CypD over CypE and CypB ([1]; prolyl-isomerase IC50): ~ 3 fold | pIC50 [2]: 7.64 | pIC50 [3]: 7.15 | pIC50 [4]: 6.74 | pIC50 ([5]; mutant CypD R124A, read-out: Mutant Cyclophilin Prolyl Isomerase Inhibition IC50 Values, CypD R124A): 8.52 | pIC50 [6]: 8.54 | pIC50 [7]: 7.64 | PPIL1 prolyl-isomerase assay raw dose-response value ([8]; Dose 0.0201875 µM): 0.07231 and 0.05967 and 0.06308 | PPIL1 prolyl-isomerase assay raw dose-response value ([8]; Dose 0.0605624 µM): 0.05364 and 0.0572 and 0.05937 | PPIL1 prolyl-isomerase assay raw dose-response value ([8]; Dose 0.181687 µM): 0.04207 and 0.04374 and 0.05902 | PPIL1 prolyl-isomerase assay raw dose-response value ([8]; Dose 0.545062 µM): 0.02667 and 0.03161 and 0.02807 | PPIL1 prolyl-isomerase assay raw dose-response value ([8]; Dose 1.63519 µM): 0.01818 and 0.02247 and 0.01913 | PPIL1 prolyl-isomerase assay raw dose-response value ([8]; Dose 4.90556 µM): 0.01354 and 0.01399 and 0.01299 | PPIL1 prolyl-isomerase assay raw dose-response value ([8]; Dose 14.7167 µM): 0.01244 and 0.01258 and 0.01177 | PPIL1 prolyl-isomerase assay raw dose-response value ([8]; Dose 44.15 µM): 0.01521 and 0.01086 and 0.01169 | pIC50 [8]: 6.89 | PPWD1 prolyl-isomerase assay raw dose-response value ([9]; Dose 0.0201875 µM): 0.05033 and 0.05427 and 0.05661 | PPWD1 prolyl-isomerase assay raw dose-response value ([9]; Dose 0.0605624 µM): 0.05286 and 0.05252 and 0.05358 | PPWD1 prolyl-isomerase assay raw dose-response value ([9]; Dose 0.181687 µM): 0.05234 and 0.04225 and 0.05023 | PPWD1 prolyl-isomerase assay raw dose-response value ([9]; Dose 0.545062 µM): 0.05186 and 0.04473 and 0.04345 | PPWD1 prolyl-isomerase assay raw dose-response value ([9]; Dose 1.63519 µM): 0.04986 and 0.04682 and 0.05314 | PPWD1 prolyl-isomerase assay raw dose-response value ([9]; Dose 4.90556 µM): 0.03903 and 0.03772 and 0.04075 | PPWD1 prolyl-isomerase assay raw dose-response value ([9]; Dose 14.7167 µM): 0.03486 and 0.03306 and 0.03245 | PPWD1 prolyl-isomerase assay raw dose-response value ([9]; Dose 44.15 µM): 0.02892 and 0.02371 and 0.02381 | pIC50 [9]: 4.96

NCCCc1ccc(-c2ccc(C[C@@H]3NC(=O)[C@]4(Cc5ccccc5)CCCN(C4)C(=O)/C=C/C(=O)NCC[C@@H](C(=O)NCCOCCN)NC(=O)Cc4ccccc4CNC3=O)cc2)cc1 [Compound B32]
pIC50 [1]: 5.22 | reduction in potency for CypD on replacing the carboxylate with an amine [1]: 500- to 1,000 fold | pIC50 [4]: 5.96 | potency improvement on CypD K118E, R124A compared to wild-type CypD ([4]; single mutants K118E, R124A): 5- to 6 fold | pIC50 ([5]; prolyl-isomerase inhibition, read-out: IC50 CypD R124A): 6.15 | pIC50 [8]: 5.70 | pIC50 [9]: 6.10
